{"source": "patent US6372209B1", "about": "“Vaginal lactobacillus medicant” (Gyne Logix, Inc., priority 1997, dated 2002)", "key": {"[1]": {"system": "Candida albicans ATCC 60193 (cervical isolate)", "test": "Agar overlay zone of inhibition of yeast growth", "assay_type": "cell-based", "protocol": "(§1) MRS agar was allowed to harden at a 5 mm slant. Lactobacillus crispatus CTV-05 was streaked across the diameter of the plate and was grown for 24, 48 or 72 hours under both anaerobic and ambient atmospheres. Control strains of Lactobacillus jensenii CTV-01, Lactobacillus crispatus CTV-02, Lactobacillus crispatus CTV-03, and Lactobacillus crispatus CTV-04 were grown in the same way. The plates were overlayed with YM agar with 10 mM CNNaS (sodium thiocyanate, previously reported to be an inhibitor of yeast growth) or without CNNaS. The agar overlays were inoculated with one of two strains of Candida albicans ATCC 60193 (cervical isolate) or Candida albicans ATCC 14053 (human blood isolate). Zones of inhibition were measured. […] Therefore, Lactobacillus crispatus CTV-05 inhibits yeast growth in vitro."}, "[2]": {"system": "Candida albicans ATCC 14053 (human blood isolate)", "test": "Agar overlay zone of inhibition of yeast growth", "assay_type": "cell-based", "protocol": "as §1"}, "[3]": {"test": "Stability of viability: room temperature and refrigerated storage (plate count, MRS agar)", "assay_type": "physicochemical", "protocol": "(1.5) Stability of viability: Samples of each evaluated strain were retained for shelf-life studies at room temperature and refrigerated storage. At selected time intervals, samples were tested for the number of colony-forming-units using the Plate Count method with MRS agar.\nStrain CTV-05 was tested in a gelatin capsule suppository during storage at 55° C., 45° C., 35° C. and at room and refrigeration temperatures. […] Between the fourth and ninth weeks counts dropped to 9.8×10^7 per suppository and have remained at 10^7 for 25 months. […]"}, "[4]": {"details": "Lactobacillus grown anaerobically for 24, 48 or 72 hours"}, "[5]": {"details": "Lactobacillus grown under ambient atmosphere, with or without CNNaS"}}}
{"substance": "Lactobacillus crispatus CTV-05", "values": [{"measurement": "inhibition of Candida growth", "setting": "[1]; [4]", "result": "effectively inhibited growth"}, {"measurement": "inhibition of Candida growth", "setting": "[1]; [5]", "result": "unable to inhibit"}, {"measurement": "Zone of Inhibition (in millimeters)", "setting": "[1]; Organism Growth Time Period 48 hours", "result": "70 to 0", "unit": "mm"}, {"measurement": "Zone of Inhibition (in millimeters)", "setting": "[1]; Organism Growth Time Period 72 hours", "result": "70 to 0", "unit": "mm"}, {"measurement": "inhibition of Candida growth", "setting": "[2]; [4]", "result": "effectively inhibited growth"}, {"measurement": "inhibition of Candida growth", "setting": "[2]; [5]", "result": "unable to inhibit"}, {"measurement": "CFUs per Suppository", "setting": "[3]; Refrigerated (2-8° C.), 1 month", "result": "5.20E+08", "unit": "CFUs per Suppository"}, {"measurement": "CFUs per Suppository", "setting": "[3]; Refrigerated (2-8° C.), 2 months", "result": "2.20E+08", "unit": "CFUs per Suppository"}, {"measurement": "CFUs per Suppository", "setting": "[3]; Refrigerated (2-8° C.), 3 months", "result": "2.30E+08", "unit": "CFUs per Suppository"}, {"measurement": "CFUs per Suppository", "setting": "[3]; Refrigerated (2-8° C.), 5 months", "result": "2.80E+08", "unit": "CFUs per Suppository"}, {"measurement": "CFUs per Suppository", "setting": "[3]; Refrigerated (2-8° C.), 6 months", "result": "1.70E+08", "unit": "CFUs per Suppository"}, {"measurement": "CFUs per Suppository", "setting": "[3]; Refrigerated (2-8° C.), 7 months", "result": "2.60E+08", "unit": "CFUs per Suppository"}, {"measurement": "CFUs per Suppository", "setting": "[3]; Refrigerated (2-8° C.), 9 months", "result": "3.10E+08", "unit": "CFUs per Suppository"}, {"measurement": "CFUs per Suppository", "setting": "[3]; Refrigerated (2-8° C.), 11 months", "result": "2.50E+08", "unit": "CFUs per Suppository"}, {"measurement": "CFUs per Suppository", "setting": "[3]; Refrigerated (2-8° C.), 15 months", "result": "9.20E+07", "unit": "CFUs per Suppository"}, {"measurement": "CFUs per Suppository", "setting": "[3]; Refrigerated (2-8° C.), 18 months", "result": "1.50E+07", "unit": "CFUs per Suppository"}, {"measurement": "CFUs per Suppository", "setting": "[3]; Refrigerated (2-8° C.), 25 months", "result": "5.00E+08", "unit": "CFUs per Suppository"}, {"measurement": "CFUs per Suppository", "setting": "[3]; Room Temperature (25° C. ± 5° C.), 1 month", "result": "1.30E+08", "unit": "CFUs per Suppository"}, {"measurement": "CFUs per Suppository", "setting": "[3]; Room Temperature (25° C. ± 5° C.), 1 week", "result": "3.80E+08", "unit": "CFUs per Suppository"}, {"measurement": "CFUs per Suppository", "setting": "[3]; Room Temperature (25° C. ± 5° C.), 2 months", "result": "9.80E+07", "unit": "CFUs per Suppository"}, {"measurement": "CFUs per Suppository", "setting": "[3]; Room Temperature (25° C. ± 5° C.), 2 weeks", "result": "3.20E+08", "unit": "CFUs per Suppository"}, {"measurement": "CFUs per Suppository", "setting": "[3]; Room Temperature (25° C. ± 5° C.), 3 months", "result": "1.83E+07", "unit": "CFUs per Suppository"}, {"measurement": "CFUs per Suppository", "setting": "[3]; Room Temperature (25° C. ± 5° C.), 3 weeks", "result": "3.05E+08", "unit": "CFUs per Suppository"}, {"measurement": "CFUs per Suppository", "setting": "[3]; Room Temperature (25° C. ± 5° C.), 4 months", "result": "3.25E+07", "unit": "CFUs per Suppository"}, {"measurement": "CFUs per Suppository", "setting": "[3]; Room Temperature (25° C. ± 5° C.), 5 months", "result": "3.80E+07", "unit": "CFUs per Suppository"}, {"measurement": "CFUs per Suppository", "setting": "[3]; Room Temperature (25° C. ± 5° C.), 6 months", "result": "1.70E+07", "unit": "CFUs per Suppository"}, {"measurement": "CFUs per Suppository", "setting": "[3]; Room Temperature (25° C. ± 5° C.), 7 months", "result": "1.60E+07", "unit": "CFUs per Suppository"}, {"measurement": "CFUs per Suppository", "setting": "[3]; Room Temperature (25° C. ± 5° C.), 9 months", "result": "4.70E+07", "unit": "CFUs per Suppository"}, {"measurement": "CFUs per Suppository", "setting": "[3]; Room Temperature (25° C. ± 5° C.), 11 months", "result": "2.80E+07", "unit": "CFUs per Suppository"}, {"measurement": "CFUs per Suppository", "setting": "[3]; Room Temperature (25° C. ± 5° C.), 15 months", "result": "2.20E+06", "unit": "CFUs per Suppository"}, {"measurement": "CFUs per Suppository", "setting": "[3]; Room Temperature (25° C. ± 5° C.), 18 months", "result": "4.70E+06", "unit": "CFUs per Suppository"}, {"measurement": "CFUs per Suppository", "setting": "[3]; Room Temperature (25° C. ± 5° C.), 25 months", "result": "1.60E+07", "unit": "CFUs per Suppository"}, {"measurement": "colony counts, stable level", "setting": "[3]; refrigerated product, for 5 months", "result": "10^8 per suppository"}, {"measurement": "colony counts after drop", "setting": "[3]; room temperature, between the fourth and ninth weeks", "result": "9.8×10^7 per suppository"}, {"measurement": "colony counts, stable level", "setting": "[3]; room temperature, for 4 weeks", "result": "10^8 per suppository"}, {"measurement": "colony counts, level maintained", "setting": "[3]; room temperature, for 25 months", "result": "10^7"}, {"measurement": "CFU value at which product remained stable after drop from 10^8 at 2 months", "setting": "[3]; stored at room temperature (25° C. +5° C.), for 25 months", "result": "10^7 CFU"}, {"measurement": "CFU value at which product was stable", "setting": "[3]; stored refrigerated (2-8° C.), for 25 months", "result": "10^8 CFU"}]}
